The text below walks through data of patent publication US8524637B2, “Composition for controlling pests and method for controlling pests” (Sumitomo Chemical Company, Limited, priority 2008, dated 2013).

For this assay, the system named is Rhizoctonia solani. Briefly: Cucumber seed treatment test against Rhizoctonia solani (Test Example 1). The class given is in vivo. As to conditions: cucumber seeds, acetone solution, seven days after seeding. The text has this:
An emulsifiable concentrate was obtained by mixing clothianidin and metconazole.
In accordance with Seed Treatment Example 5, cucumber (Sagami Hanjiro) seeds were smeared with the emulsifiable concentrate using a rotary seed treating machine (seed dresser, manufactured by Hans-Ulrich Hege GmbH).
The obtained treated seeds were allowed to stand overnight and sown on the soil with which each plastic pot was filled and then covered with the soil mixed with Rhizoctonia solani cultured in a bran culture medium. While sprinkling, culture was conducted in a greenhouse. Seven days after seeding, the number of seeds not showing epicotyl emergence was checked and severity was calculated using Equation 1 shown below. Based on the severity, the control value was calculated using Equation 2.
For comparison, acetone solutions each having a predetermined concentration of clothianidin or metconazole were prepared by mixing each of clothianidin and metconazole with acetone, and the same test was carried out. Severity=(number of seeds not showing epicotyl emergence)×100/(total number of sown seeds) Equation 1 Control value=100×(A−B)/A Equation 2 • A: Severity of plants of the chemical non-treated district • B: Severity of plants of the chemical treated district

Where the note is “clothianidin 200 g, metconazole 0 g per 100 kg of seeds”, `CN/C(=N\[N+](=O)[O-])NCc1cnc(Cl)s1` [Clothianidin, clothianidin] registered a Control value of 4.

With `CC1(C)CCC(Cc2ccc(Cl)cc2)C1(O)Cn1cncn1` (centres unmarked) [Metconazole, metconazole], for the setting “clothianidin 0 g, metconazole 1 g per 100 kg of seeds”, the Control value turned out to be 39.
